The numbers were not newly measured in patent publication US7972386B2, “Bleaching of substrates” (Conopco, Inc., priority 2005, dated 2011), which cites them from elsewhere.

The conditions of the data set: at 20° C.

Regarding `CN1CCN(C)CCN(C)CC1.CN1CCN(C)CCN(C)CC1.F[P-](F)(F)(F)(F)F.F[P-](F)(F)(F)(F)F.O.[Mn+4].[Mn+4].[O-2].[O-2].[O-2]` [[Mn2O3(Me3-TACN)2](PF6)2•H2O, [Mn2O3(Me3-TACN)2] (PF6)2.H2O], the water solubility is given as 10.8 g per litre.
